This passage reports IC50 results from patent US20240109918A1, “HETEROCYCLIC COMPOUNDS AND USES THEREOF” (Kumquat Biosciences Inc., priority 2022, published 2024).

Bounds are passed on as bounds.

In one test the target is T1, KRASwt (Homo sapiens, UniProt P01116).
T1 construct: made in house; host or cells: E. coli BL21 (DE3)
The experiment in a line: Bio-Biochem-PPI-HTRF Ras-SOS1 interaction assay (KRAS wt). Type of test: biochemical. The following applies: 5 nM. The method in brief: (§1)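 GST-tagged K-Ras (wt or G12D) with anti-GST-Eu(K) donor was mixed with His-hSOS1 and anti-6His-XL665 acceptor in HEPES pH 7.4/NaCl/DTT/BSA/Igepal buffer, with compound in duplicate from 10 μM down to 0.01 μM. After about 10 min or longer, HTRF 665/620 nm ratio gave IC50.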

The target in another test is T2, KRASG12D (Homo sapiens, UniProt P01116, G12D).
T2 construct: made in house; host or cells: E. coli BL21 (DE3)
T2 sequence (P01116 1-188 isoform P01116-2 G12D): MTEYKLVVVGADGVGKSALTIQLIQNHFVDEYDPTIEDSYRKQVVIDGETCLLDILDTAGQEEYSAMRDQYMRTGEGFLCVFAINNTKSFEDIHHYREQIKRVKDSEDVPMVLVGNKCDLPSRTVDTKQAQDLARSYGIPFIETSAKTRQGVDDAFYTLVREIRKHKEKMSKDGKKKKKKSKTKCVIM
The experiment in a line: Bio-Biochem-PPI-HTRF Ras-SOS1 interaction assay (KRAS G12D). Format: biochemical. The note with it: 5 nM. The method in brief:
as §1

T1 sequence (P01116 1-188 isoform P01116-2): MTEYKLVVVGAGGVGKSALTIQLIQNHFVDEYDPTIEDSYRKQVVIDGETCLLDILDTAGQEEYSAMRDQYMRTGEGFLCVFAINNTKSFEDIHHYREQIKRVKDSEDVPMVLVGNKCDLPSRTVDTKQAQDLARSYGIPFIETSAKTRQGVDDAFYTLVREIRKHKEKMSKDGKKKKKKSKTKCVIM

For `N#Cc1c(N)sc2c(F)ccc(-c3c(Cl)cc4c(N5CCOC6(CN(C(=O)c7ccnn7C(F)(F)F)C6)C5)nc(OC[C@@]56CCCN5C[C@H](F)C6)nc4c3F)c12` [compound 265, 2-amino-4-(6-chloro-8-fluoro-2-(((2R,7aS)-2-fluorotetrahydro-1H-pyrrolizin-7a(5H)-yl)methoxy)-4-(2-(1-(trifluoromethyl)-1H-pyrazole-5-carbonyl)-5-oxa-2,8-diazaspiro[3.5]nonan-8-yl)quinazolin-7-yl)-7-fluorobenzo[b]thiophene-3-carbonitrile], the IC50 on KRASwt and against KRASG12D was less than 5 µM throughout.

As for `CC(C)(C(=O)N1CC2(CCCCN(c3nc(OC[C@@]45CCCN4C[C@H](F)C5)nc4c(F)c(-c5ccc(F)c6sc(N)c(C#N)c56)c(Cl)cc34)C2)C1)N1CCOCC1` [compound 266, 2-amino-4-(6-chloro-8-fluoro-2-(((2R,7aS)-2-fluorotetrahydro-1H-pyrrolizin-7a(5H)-yl)methoxy)-4-(2-(2-methyl-2-morpholinopropanoyl)-2,6-diazaspiro[3.6]decan-6-yl)quinazolin-7-yl)-7-fluorobenzo[b]thiophene-3-carbonitrile], the IC50 against KRASwt and against KRASG12D was less than 5 µM throughout.

In the case of `N#Cc1c(N)sc2c(F)ccc(-c3c(Cl)cc4c(N5CCCCC6(CN(C(=O)C7CC78CCOC8)C6)C5)nc(OC[C@@]56CCCN5C[C@H](F)C6)nc4c3F)c12` (stereo partly drawn) [compound 267, 4-(4-(2-(5-oxaspiro[2.4]heptane-1-carbonyl)-2,6-diazaspiro[3.6]decan-6-yl)-6-chloro-8-fluoro-2-(((2R,7aS)-2-fluorotetrahydro-1H-pyrrolizin-7a(5H)-yl)methoxy)quinazolin-7-yl)-2-amino-7-fluorobenzo[b] thiophene-3-carbonitrile], the IC50 against KRASwt and against KRASG12D was less than 5 µM each time.

For `N#Cc1c(N)sc2c(F)ccc(-c3c(Cl)cc4c(N5CCCCC6(CN(C(=O)COC(F)(F)F)C6)C5)nc(OC[C@@]56CCCN5C[C@H](F)C6)nc4c3F)c12` [compound 268, 2-amino-4-(6-chloro-8-fluoro-2-(((2R,7aS)-2-fluorotetrahydro-1H-pyrrolizin-7a(5H)-yl)methoxy)-4-(2-(2-(trifluoromethoxy)acetyl)-2,6-diazaspiro[3.6]decan-6-yl)quinazolin-7-yl)-7-fluorobenzo[b]thiophene-3-carbonitrile], the half-inhibitory concentration (IC50) at KRASwt and on KRASG12D was less than 5 µM in each case.

As for `N#Cc1c(N)sc2c(F)ccc(-c3c(Cl)cc4c(N5CC(F)CCC6(CN(C(=O)[C@@H]7CC7(F)F)C6)C5)nc(OC[C@@]56CCCN5C[C@H](F)C6)nc4c3F)c12` (stereo partly drawn) [compound 269, 2-amino-4-(6-chloro-4-(2-((S)-2,2-difluorocyclopropane-1-carbonyl)-8-fluoro-2,6-diazaspiro[3.6]decan-6-yl)-8-fluoro-2-(((2R,7aS)-2-fluorotetrahydro-1H-pyrrolizin-7a(5H)-yl)methoxy)quinazolin-7-yl)-7-fluorobenzo[b]thiophene-3-carbonitrile], the IC50 on KRASwt and on KRASG12D was less than 5 µM in each case.

As to `N#Cc1c(N)sc2c(F)ccc(-c3c(Cl)cc4c(N5CCCCC6(CN(C(=O)C7C8CCOC87)C6)C5)nc(OC[C@@]56CCCN5C[C@H](F)C6)nc4c3F)c12` (stereo partly drawn) [compound 270, 4-(4-(2-(2-oxabicyclo[3.1.0]hexane-6-carbonyl)-2,6-diazaspiro [3.6]decan-6-yl)-6-chloro-8-fluoro-2-(((2R,7aS)-2-fluorotetrahydro-1H-pyrrolizin-7a(5H)-yl)methoxy)quinazolin-7-yl)-2-amino-7-fluorobenzo[b]thiophene-3-carbonitrile], the IC50 against KRASwt and against KRASG12D was less than 5 µM each time.
